Experimental data as given in patent publication US10632113B2, “Abuse-resistant drug formulations with built-in overdose protection” (KASHIV BIOSCIENCES, LLC, priority 2014, dated 2020).
Counter-ions that a name gives are not always drawn.

Legend:
[1] = Dissolution studies using USP Apparatus II, single vs multiple doses; assay type: physicochemical; conditions: Type A + Type C granules in capsule, 250 ml medium pH 1.6, 10, 30, 60, 120 minutes
[2] = Binding studies using USP Apparatus I (naloxone to ion exchange polymer); assay type: physicochemical; conditions: 1:1 molar naloxone:Amberlite IRP64, 500 mL 0.1 N HCl / 5 mM phosphate buffer pH 6.8
Procedure: The following experiment was done. • 1. Based on the 1:1 molar ratio of naloxone:Amberlite™ IRP64, take the required quantity of naloxone and Amberlite™ IRP64 blend in a capsule and add it to 500 mL of the medium (0.1 N HCl/5 mM Phosphate buffer, pH 6.8). • 2. Withdraw dissolution samples at 10, 30 and 60 mins. • 3. Centrifuge the samples at 3000 rpm for 10 mins and filter through fritted filter ([…]) to get the supernatant for analysis. The results are illustrated in FIG. 9.

Row | Structure (SMILES) | percentage of drug released, multiple doses versus single dose [1] | percentage of naloxone hydrochloride bonded to ion exchange polymer, multiple doses versus single dose [2]
1 | COc1ccc2c3c1O[C@H]1C(=O)CC[C@@]4(O)[C@@H](C2)N(C)CC[C@]314.Cl [oxycodone hydrochloride] | drastically reduced | –
2 | C=CCN1CC[C@]23c4c5ccc(O)c4O[C@H]2C(=O)CC[C@@]3(O)[C@H]1C5 [naloxone hydrochloride] | – | drastically increases
